For six molecules, T/C results are on record in PubChem BioAssay AID180 (DTP/NCI, 2004).

This assay concerns BDF1 mice, Adenocarcinoma 755 s.c., tumor weight T/C. As to the kind of experiment: NCI In Vivo Anticancer Drug Screen. Data for tumor model Adenocarcinoma 755 (subcutaneous) in B6D2F1 (BDF1) mice. Conditions: endpoint: mean tumor weight, higher = larger tumour. The gist of the method: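 Readout: T/C, i.e. treated-group measurement over vehicle-control measurement. Endpoint is survival or tumor size in tumor-bearing mice given compound.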

SMILES strings stand for the structures. Several values for one entry are separate records, joined by “and”; a condition that tells them apart may be missing. Identical values can stand only once. Non-standard residues stand in square brackets, D forms with d. Residues, ends and D or L forms follow the SMILES beside them. ξ: configuration not given here. Ac5c = NC1(C(=O)O)CCCC1; ξS = NC(CO)C(=O)O

As for `CSc1ncnc2nc[nH]c12`, the T/C (dose: 0.5 mg/kg/injection, schedule: Q#A X022 (ip), vehicle: carboxymethylcellulose (CMC)) was 64 % of control; the T/C (dose: 1.0 mg/kg/injection, schedule: Q01DX011 (im), vehicle: carboxymethylcellulose (CMC)) was 99 % of control; the T/C (dose: 1.0 mg/kg/injection, schedule: Q01DX011 (oral), vehicle: carboxymethylcellulose (CMC)) is 58 % of control; the T/C (dose: 1.0 mg/kg/injection, schedule: Q01DX011 (sc), vehicle: carboxymethylcellulose (CMC)) was 58 % of control; the T/C (dose: 1.5 mg/kg/injection, schedule: Q01DX011 (ip), vehicle: carboxymethylcellulose (CMC)) was 50 % of control; the T/C (dose: 2.5 mg/kg/injection, schedule: Q#A X022 (ip), vehicle: carboxymethylcellulose (CMC)) was 46 % of control. For the same molecule, the T/C by setting is: (dose: 3.0 mg/kg/injection, schedule: Q01DX011 (ip), vehicle: carboxymethylcellulose (CMC)) 82 % of control; (dose: 5.0 mg/kg/injection, schedule: Q01DX011 (im), vehicle: carboxymethylcellulose (CMC)) 89 % of control; (dose: 5.0 mg/kg/injection, schedule: Q01DX011 (oral), vehicle: carboxymethylcellulose (CMC)) 5 % of control and 26 % of control; (dose: 5.0 mg/kg/injection, schedule: Q01DX011 (sc), vehicle: carboxymethylcellulose (CMC)) 60 % of control; (dose: 5.0 mg/kg/injection, schedule: Q03DX004 (ip), vehicle: carboxymethylcellulose (CMC)) 70 % of control; (dose: 5.0 mg/kg/injection, schedule: Q#A X022 (ip), vehicle: carboxymethylcellulose (CMC)) 40 % of control. In addition, the T/C is 28 % of control (dose: 6.0 mg/kg/injection, schedule: Q01DX011 (ip), vehicle: carboxymethylcellulose (CMC)); 40 % of control (dose: 7.5 mg/kg/injection, schedule: Q#A X022 (ip), vehicle: carboxymethylcellulose (CMC)); 94 % of control (dose: 10.0 mg/kg/injection, schedule: Q01DX001 (ip), vehicle: carboxymethylcellulose (CMC)); 30 % of control (dose: 10.0 mg/kg/injection, schedule: Q01DX011 (sc), vehicle: carboxymethylcellulose (CMC)); 86 % of control (dose: 10.0 mg/kg/injection, schedule: Q03DX004 (ip), vehicle: carboxymethylcellulose (CMC)); 13 % of control (dose: 12.0 mg/kg/injection, schedule: Q01DX011 (ip), vehicle: carboxymethylcellulose (CMC)). For the same molecule, the T/C (dose: 12.5 mg/kg/injection, schedule: Q#A X022 (ip), vehicle: carboxymethylcellulose (CMC)) is 4 % of control; the T/C (dose: 15.0 mg/kg/injection, schedule: Q01DX011 (im), vehicle: carboxymethylcellulose (CMC)) was 8 % of control; the T/C (dose: 15.0 mg/kg/injection, schedule: Q01DX011 (oral), vehicle: carboxymethylcellulose (CMC)) is 5 % of control; the T/C (dose: 15.0 mg/kg/injection, schedule: Q01DX011 (sc), vehicle: carboxymethylcellulose (CMC)) is 4 % of control; the T/C (dose: 25.0 mg/kg/injection, schedule: Q01DX001 (ip), vehicle: carboxymethylcellulose (CMC)) is 53 % of control; the T/C (dose: 25.0 mg/kg/injection, schedule: Q01DX006 (iv), vehicle: carboxymethylcellulose (CMC)) was 36 % of control. In addition, the T/C is, setting by setting: (dose: 25.0 mg/kg/injection, schedule: Q01DX011 (im), vehicle: carboxymethylcellulose (CMC)) 6 % of control; (dose: 25.0 mg/kg/injection, schedule: Q01DX011 (ip), vehicle: carboxymethylcellulose (CMC)) 1 % of control; (dose: 25.0 mg/kg/injection, schedule: Q01DX011 (oral), vehicle: carboxymethylcellulose (CMC)) 11 % of control; (dose: 25.0 mg/kg/injection, schedule: Q03DX004 (ip), vehicle: carboxymethylcellulose (CMC)) 82 % of control; (dose: 25.0 mg/kg/injection, schedule: Q#A X022 (ip), vehicle: carboxymethylcellulose (CMC)) 2 % of control; (dose: 50.0 mg/kg/injection, schedule: Q01DX001 (ip), vehicle: carboxymethylcellulose (CMC)) 41 % of control. Further, the T/C reads like this: (dose: 50.0 mg/kg/injection, schedule: Q01DX006 (iv), vehicle: carboxymethylcellulose (CMC)) 37 % of control; (dose: 50.0 mg/kg/injection, schedule: Q01DX011 (ip), vehicle: carboxymethylcellulose (CMC)) 1 % of control; (dose: 50.0 mg/kg/injection, schedule: Q01DX011 (oral), vehicle: carboxymethylcellulose (CMC)) 1 % of control and 3 % of control; (dose: 50.0 mg/kg/injection, schedule: Q03DX004 (ip), vehicle: carboxymethylcellulose (CMC)) 80 % of control; (dose: 50.0 mg/kg/injection, schedule: Q#A X022 (ip), vehicle: carboxymethylcellulose (CMC)) 2 % of control; (dose: 75.0 mg/kg/injection, schedule: Q01DX001 (ip), vehicle: carboxymethylcellulose (CMC)) 80 % of control. Besides, the T/C is 14 % of control (dose: 75.0 mg/kg/injection, schedule: Q03DX004 (ip), vehicle: carboxymethylcellulose (CMC)); 46 % of control (dose: 100.0 mg/kg/injection, schedule: Q01DX001 (ip), vehicle: carboxymethylcellulose (CMC)); 21 % of control (dose: 100.0 mg/kg/injection, schedule: Q01DX006 (iv), vehicle: carboxymethylcellulose (CMC)); 1 % of control (dose: 100.0 mg/kg/injection, schedule: Q01DX011 (ip), vehicle: carboxymethylcellulose (CMC)); 5 % of control (dose: 100.0 mg/kg/injection, schedule: Q01DX011 (oral), vehicle: carboxymethylcellulose (CMC)); 37 % of control (dose: 125.0 mg/kg/injection, schedule: Q01DX001 (ip), vehicle: carboxymethylcellulose (CMC)). Moreover, the T/C was 2 % of control (dose: 150.0 mg/kg/injection, schedule: Q03DX004 (ip), vehicle: carboxymethylcellulose (CMC)); 4 % of control (dose: 200.0 mg/kg/injection, schedule: Q01DX006 (iv), vehicle: carboxymethylcellulose (CMC)); 53 % of control (dose: 375.0 mg/kg/injection, schedule: Q01DX001 (ip), vehicle: carboxymethylcellulose (CMC)).

As for `COC1=NC2=NCCN2C(OC)=N1`, the T/C is 94 % of control (dose: 25.0 mg/kg/injection, schedule: Q01DX011 (ip), vehicle: saline); 69 % of control (dose: 75.0 mg/kg/injection, schedule: Q01DX011 (ip), vehicle: saline); 54 % of control (dose: 225.0 mg/kg/injection, schedule: Q01DX011 (ip), vehicle: saline).

With `CS(=O)(=O)OCC(=O)N1CCN(C(=O)COS(C)(=O)=O)CC1`, the T/C (dose: 25.0 mg/kg/injection, schedule: Q01DX011 (ip), vehicle: methylcellulose (MC)) is 63 % of control and the T/C (dose: 75.0 mg/kg/injection, schedule: Q01DX011 (ip), vehicle: methylcellulose (MC)) is 67 % of control.

With `CO[C@H](C(=O)[C@@H](O)[C@@H](C)O)[C@@H]1Cc2cc3cc(OC4CC(OC5CC(O)C(O)C(C)O5)C(O)C(C)O4)c(C)c(O)c3c(O)c2C(=O)[C@H]1OC1CC(OC2CC(OC3CC(C)(O)C(O)C(C)O3)C(O)C(C)O2)C(O)C(C)O1` (stereo partly specified), the T/C (dose: 0.25 mg/kg/injection, schedule: Q01DX011 (ip), vehicle: saline) is 59 % of control; the T/C (dose: 0.25 mg/kg/injection, schedule: Q01DX011 (ip), vehicle: water) is 72 % of control; the T/C (dose: 0.5 mg/kg/injection, schedule: Q01DX011 (ip), vehicle: saline) was 57 % of control; the T/C (dose: 0.75 mg/kg/injection, schedule: Q01DX011 (ip), vehicle: water) is 16 % of control; the T/C (dose: 1.0 mg/kg/injection, schedule: Q01DX011 (ip), vehicle: saline) is 11 % of control.

As to `NC(CO)C(=O)NC1(C(=O)O)CCCC1` (stereo unspecified) (H-[ξS]-[Ac5c]-OH), the T/C is, setting by setting: (dose: 45.0 mg/kg/injection, schedule: Q01DX011 (ip), vehicle: carboxymethylcellulose (CMC)) 62 % of control; (dose: 90.0 mg/kg/injection, schedule: Q01DX011 (ip), vehicle: carboxymethylcellulose (CMC)) 12 % of control; (dose: 180.0 mg/kg/injection, schedule: Q01DX011 (ip), vehicle: carboxymethylcellulose (CMC)) 5 % of control.

Regarding `COCC1OC2OC3C(COC)OC(OC4C(COC)OC(OC5C(COC)OC(OC6C(COC)OC(OC7C(COC)OC(OC8C(COC)OC(OC1C(O)C2O)C(O)C8O)C(O)C7O)C(O)C6O)C(O)C5O)C(O)C4O)C(O)C3O` (stereo unspecified) (tested in a mixture with another compound), the T/C (dose: 3.12 mg/kg/injection, schedule: Q01DX011 (ip), vehicle: Klucel (hydroxypropylcellulose) (HPC)) was 87 % of control; the T/C (dose: 6.25 mg/kg/injection, schedule: Q01DX011 (ip), vehicle: Klucel (hydroxypropylcellulose) (HPC)) was 97 % of control; the T/C (dose: 12.5 mg/kg/injection, schedule: Q01DX011 (ip), vehicle: Klucel (hydroxypropylcellulose) (HPC)) is 66 % of control; the T/C (dose: 25.0 mg/kg/injection, schedule: Q01DX011 (ip), vehicle: Klucel (hydroxypropylcellulose) (HPC)) was 95 % of control; the T/C (dose: 50.0 mg/kg/injection, schedule: Q01DX011 (ip), vehicle: Klucel (hydroxypropylcellulose) (HPC)) was 87 % of control; the T/C (dose: 100.0 mg/kg/injection, schedule: Q01DX011 (ip), vehicle: Klucel (hydroxypropylcellulose) (HPC)) is 51 % of control. Besides, the T/C by setting is: (dose: 200.0 mg/kg/injection, schedule: Q01DX011 (ip), vehicle: Klucel (hydroxypropylcellulose) (HPC)) 104 % of control; (dose: 400.0 mg/kg/injection, schedule: Q01DX011 (ip), vehicle: Klucel (hydroxypropylcellulose) (HPC)) 71 % of control.
